Results from patent US20130274338A1, “PHARMACEUTICAL COMPOSITIONS COMPRISING DGLA, 15-OHEPA, AND/OR 15-HETRE AND METHODS OF REDUCING SEBUM PRODUCTION USING SAME” (priority 2012, published 2013).

Tested on: P. acnes
Test: Agar dilution method, growth of P. acnes and MIC, combinations with a fatty acid spike
Type: cell-based, Propionibacterium acnes
Design: key to Growth Index Plate 1 / Growth Index Plate 2 / Growth Index Plate 3 / Growth Index Avg: +++: confluent growth (comparable to control); ++: less confluent growth; +: marked reduction in growth to multiple tiny, single colonies; −: no growth present
Experimental: Several compounds including fatty acids such as DGLA, 15-OHEPA, and 15-HETrE were tested to determine their capacity to inhibit the growth of P. acnes. In an exemplary method, an agar dilution method was used to determine the minimum inhibitory concentration (MIC) of each tested compound. Briefly, the agar dilution method involved preparing a series of concentrations of each compound (e.g., nicotinamide, benzoyl peroxide, adapalene, metronidazole, DGLA, 15-OHEPA, and 15-HETrE) in a Reinforced Clostridial Agar (RCA) media that facilitates growth of P. acnes under anaerobic conditions. An inoculum of P. acnes was prepared by incubation of P. acnes for approximately seven days at 35-37° C. to achieve a ≧1.0 OD600 inoculum of P. acnes in RCM broth. A portion of this inoculum was then added to the surface of each plate as a 10 μL spot and incubated at 35-37° C. for 72 hours or more. Growth of P. acnes was then observed and compared to control plates in which no compound has been added, and positive inhibition plates prepared with erythromycin. […] The growth of P. acnes in the presence of nicotinamide, benzoyl peroxide, adapalene, metronidazole, DGLA, 15-OHEPA, and 15-HETrE was determined with varying concentrations of the compound (see, Table 2). Next, the MIC was determined as the concentration at which a marked reduction (+) occurs in the appearance of growth on the test plate (as per Clinical and Laboratory Standards Institute M11-A7).
The compounds tested singly in Example 1 were tested in combination with one another to determine the capacity of the combination to inhibit the growth of P. acnes. In an exemplary method, the MIC was determined for each of the combination as described in Example 1. Briefly, test combinations included DGLA with nicotinamide, benzoyl peroxide, adapalene, or metronidazole; 15-HETrE with nicotinamide, benzoyl peroxide, adapalene, or metronidazole; and 15-OHEPA with nicotinamide, benzoyl peroxide, adapalene, or metronidazole. The tables below show the growth of P. acnes in the presence of 0.4 or 1.0 mg/mL DGLA with varying concentrations of nicotinamide, benzoyl peroxide, adapalene, or metronidazole (Table 3); the growth of P. acnes in the presence of 0.01 or 0.05 mg/mL 15-HETrE with varying concentrations of nicotinamide, benzoyl peroxide, adapalene, or metronidazole (Table 5); and the growth of P. acnes in the presence of 0.5 or 0.1 mg/mL 15-OHEPA with varying concentrations of nicotinamide, benzoyl peroxide, adapalene, or metronidazole (Table 7).

[1] = compound at 0.2 mg/mL + 0.01 mg/mL 15-HETrE
[2] = compound at 0.2 mg/mL + 0.05 mg/mL 15-HETrE
[3] = compound at 0.2 mg/mL + 0.05 mg/mL 15-OHEPA
[4] = compound at 0.2 mg/mL + 0.1 mg/mL 15-OHEPA
[5] = compound at 0.2 mg/mL + 0.4 mg/mL dGLA
[6] = compound at 0.2 mg/mL + 1.0 mg/mL dGLA
[7] = compound at 0.4 mg/mL + 0.01 mg/mL 15-HETrE
[8] = compound at 0.4 mg/mL + 0.05 mg/mL 15-HETrE
[9] = compound at 0.4 mg/mL + 0.05 mg/mL 15-OHEPA
[10] = compound at 0.4 mg/mL + 0.1 mg/mL 15-OHEPA
[11] = compound at 0.4 mg/mL + 0.4 mg/mL dGLA
[12] = compound at 0.4 mg/mL + 1.0 mg/mL dGLA
[13] = compound at 0.6 mg/mL + 0.01 mg/mL 15-HETrE
[14] = compound at 0.6 mg/mL + 0.05 mg/mL 15-HETrE
[15] = compound at 0.6 mg/mL + 0.05 mg/mL 15-OHEPA
[16] = compound at 0.6 mg/mL + 0.1 mg/mL 15-OHEPA
[17] = compound at 0.6 mg/mL + 0.4 mg/mL dGLA
[18] = compound at 0.6 mg/mL + 1.0 mg/mL dGLA
[19] = compound at 0.7 mg/mL + 0.01 mg/mL 15-HETrE
[20] = compound at 0.7 mg/mL + 0.05 mg/mL 15-HETrE
[21] = compound at 0.7 mg/mL + 0.05 mg/mL 15-OHEPA
[22] = compound at 0.7 mg/mL + 0.1 mg/mL 15-OHEPA
[23] = compound at 0.8 mg/mL + 0.01 mg/mL 15-HETrE
[24] = compound at 0.8 mg/mL + 0.05 mg/mL 15-HETrE
[25] = compound at 0.8 mg/mL + 0.05 mg/mL 15-OHEPA
[26] = compound at 0.8 mg/mL + 0.1 mg/mL 15-OHEPA
[27] = compound at 0.8 mg/mL + 0.4 mg/mL dGLA
[28] = compound at 0.8 mg/mL + 1.0 mg/mL dGLA
[29] = compound at 1.0 mg/mL + 0.4 mg/mL dGLA
[30] = compound at 1.0 mg/mL + 1.0 mg/mL dGLA

## COc1ccc(-c2ccc3cc(C(=O)O)ccc3c2)cc1C12CC3CC(CC(C3)C1)C2 [Adapalene, 6-[3-(1-adamantyl)-4-methoxyphenyl]-2-naphthoic acid]
[1]
  Growth Index Avg: +++
  Growth Index Plate 1: +++
  Growth Index Plate 2: +++
  Growth Index Plate 3: +++
[2]
  Growth Index Avg: −
  Growth Index Plate 1: −
  Growth Index Plate 2: −
  Growth Index Plate 3: −
[3]
  Growth Index Avg: +++
  Growth Index Plate 1: +++
  Growth Index Plate 2: +++
  Growth Index Plate 3: +++
[4]
  Growth Index Avg: −
  Growth Index Plate 1: −
  Growth Index Plate 2: −
  Growth Index Plate 3: −
[5]
  Growth Index Avg: +++
  Growth Index Plate 1: +++
  Growth Index Plate 2: +++
  Growth Index Plate 3: +++
[6]
  Growth Index Avg: +++
  Growth Index Plate 1: +++
  Growth Index Plate 2: +++
  Growth Index Plate 3: +++
[7]
  Growth Index Avg: +++
  Growth Index Plate 1: +++
  Growth Index Plate 2: +++
  Growth Index Plate 3: +++
[8]
  Growth Index Avg: −
  Growth Index Plate 1: −
  Growth Index Plate 2: −
  Growth Index Plate 3: −
[9]
  Growth Index Avg: +++
  Growth Index Plate 1: +++
  Growth Index Plate 2: +++
  Growth Index Plate 3: +++
[10]
  Growth Index Avg: −
  Growth Index Plate 1: −
  Growth Index Plate 2: −
  Growth Index Plate 3: −
[11]
  Growth Index Avg: +++
  Growth Index Plate 1: +++
  Growth Index Plate 2: +++
  Growth Index Plate 3: +++
[12]
  Growth Index Avg: +++
  Growth Index Plate 1: +++
  Growth Index Plate 2: +++
  Growth Index Plate 3: +++
[13]
  Growth Index Avg: ++
  Growth Index Plate 1: ++
  Growth Index Plate 2: ++
  Growth Index Plate 3: ++
[14]
  Growth Index Avg: −
  Growth Index Plate 1: −
  Growth Index Plate 2: −
  Growth Index Plate 3: −
[15]
  Growth Index Avg: +++
  Growth Index Plate 1: ++
  Growth Index Plate 2: +++
  Growth Index Plate 3: +++
[16]
  Growth Index Avg: −
  Growth Index Plate 1: −
  Growth Index Plate 2: −
  Growth Index Plate 3: −
[17]
  Growth Index Avg: +++
  Growth Index Plate 1: +++
  Growth Index Plate 2: +++
  Growth Index Plate 3: +++
[18]
  Growth Index Avg: +++
  Growth Index Plate 1: +++
  Growth Index Plate 2: +++
  Growth Index Plate 3: +++
[19]
  Growth Index Avg: +
  Growth Index Plate 1: +
  Growth Index Plate 2: +
  Growth Index Plate 3: +
[20]
  Growth Index Avg: −
  Growth Index Plate 1: −
  Growth Index Plate 2: −
  Growth Index Plate 3: −
[21]
  Growth Index Avg: ++
  Growth Index Plate 1: ++
  Growth Index Plate 2: ++
  Growth Index Plate 3: ++
[22]
  Growth Index Avg: −
  Growth Index Plate 1: −
  Growth Index Plate 2: −
  Growth Index Plate 3: −
[23]
  Growth Index Avg: −
  Growth Index Plate 1: +
  Growth Index Plate 2: −
  Growth Index Plate 3: −
[24]
  Growth Index Avg: −
  Growth Index Plate 1: −
  Growth Index Plate 2: −
  Growth Index Plate 3: −
[25]
  Growth Index Avg: ++
  Growth Index Plate 1: ++
  Growth Index Plate 2: ++
  Growth Index Plate 3: +
[26]
  Growth Index Avg: −
  Growth Index Plate 1: −
  Growth Index Plate 2: −
  Growth Index Plate 3: −
[27]
  Growth Index Avg: +++
  Growth Index Plate 1: +++
  Growth Index Plate 2: +++
  Growth Index Plate 3: +++
[28]
  Growth Index Avg: +++
  Growth Index Plate 1: +++
  Growth Index Plate 2: +++
  Growth Index Plate 3: +++
[29]
  Growth Index Avg: +++
  Growth Index Plate 1: +++
  Growth Index Plate 2: +++
  Growth Index Plate 3: +++
[30]
  Growth Index Avg: +++
  Growth Index Plate 1: +++
  Growth Index Plate 2: +++
  Growth Index Plate 3: +++
In combination with 15-OHEPA
  growth of P. Acnes in combination with 15-OHEPA, compared with 15 OHEPA used alone: did not reduce the growth
In combination with DGLA
  growth of P. Acnes in combination with DGLA, compared with DGLA used alone: did not reduce the growth
